Source: patent US20260015332A1, “SYNTHESIS METHOD AND APPLICATION OF BENZOTHIASELENAZOLE-1-OXIDE COMPOUND AND DERIVATIVE THEREOF” (priority 2022, published 2026)

Target: M^pro protein of SARS-CoV-2 (3CLpro, P132H mutation) (Severe acute respiratory syndrome coronavirus 2, UniProt P0DTD1, P3395H)
Format: biochemical

**Q.** For `O=S1(c2ccccc2)=N[Se]c2ccccc21` (stereo not shown) [Compound 1, 1-phenylbenzo[d][1,3,2]thiaselenazole-1-ketone], which “inhibitory activity against the M^pro protein of SARS-CoV-2 compared with ebselen (EBS) control” value is on record?
**A.** superior to that of the ebselen (EBS) control group
